# Reference: patent US6004928A, “Method of treating hyperlipidemia” (Biomeasure, Incorporated, priority 1998, dated 1999)
# pKi: −log10 of the molar value. Positions of bridges follow the written chain, without caps; N, C: chain ends. Non-standard residues stand in square brackets, D forms with d. Residues, ends and D or L forms follow the SMILES beside them.
# What was measured:
# [1] = tested on: fatty (fa/fa) Zucker rats; test: Reduction of glycerol and triglycerides, chronic treatment in fatty Zucker rats; format: in vivo, rat
# Description: The obese (fa/fa) Zucker and its derivative in the Zucker diabetic fatty (ZDF/Drt-fa) are excellent models of diabetes-induced dyspilidemia (Shafrir, E., Diabetes/Metabolism Rev. 8:179-208 (1992); Peterson, R. G., et al., ILAR News 32:16-19 (1990)). The animals develop progressive hypertriglyceridemia and hypercholesterolemia.
# Eleven male fatty Zucker rats weighing about 450 grams were randomly divided into 2 groups and their initial body weights recorded. The animals were housed in pairs in a normal 12 hour light/dark cycle at 20±2° C. and fed a standard laboratory rat diet (Beekay rat and mouse diet, Bantin & Kingman, Hull, Humberside, U.K.) overnight ad libitum.
# For the group assigned to receive drug treatment, the rats received BIM-23268C at 3 mg/kg, by subcutaneous injection twice a day at 10:00 a.m. and 5:00 p.m. The other group was treated with a subcutaneous injection of 0.1 ml/100 g of saline twice a day at 10:00 a.m. and 5:00 p.m. The animals were subjected to the BIM-23268 or saline treatment for a total of six days.
# On the last day of treatment (day 6), food was removed at 5:00 p.m. and the rats fasted overnight. At 9:00 a.m. the next day, the animals were subjected to a glucose challenge, given as a 0.8 gram/kg of glucose orally. Periodic 400 ul of blood samples were taken from the tail vein (Peterson, R. G., ILAR News 32:16-19 (1990)) at 60 min. and 30 min. before, and at 30, 60, 90, and 120 min. after the administration of the glucose challenge (08. gram/kg orally). Aprotinin (Traysylol, Bayer UK, Hayward's Heath, W. Sussex, U.K.) and heparin (Sigma Chemical Co., Poole, Dorset, U.K.) were added to the blood samples to a final concentration of 400 KIU/ml and 100 units/ml, respectively. Plasma fractions were prepared from these samples by centrifugation at 400×G in a microfuge, for the estimation of triglycerides and glycerol. Samples were then stored at -80° C. until assayed.
# Plasma glycerol and triglycerides were determined using the Sigma Enzymatic (Tinder) calorimetric assay kit (Cat #337-B, Sigma Chemical Co., Poole, Dorset, U.K.) and measuring absorbance at 540 nm in a spectrophotometer.
# alloxan diabetic dogs = details: cited from earlier work
# normal humans = details: cited from earlier work
# acromegalics = details: cited from earlier work
# hSSTR-5 = biological target: T1, hSSTR-5 (Homo sapiens, UniProt P35346); test: Somatostatin receptor binding assay, [125I-Tyr11]somatostatin-14, transfected CHO-K1 membranes; details: 0.05 nM [125I-Tyr11]somatostatin-14, 30 min at 30° C.
# T1 construct: expressed in transfected cells; crude membranes
# T1 sequence (P35346 whole entry): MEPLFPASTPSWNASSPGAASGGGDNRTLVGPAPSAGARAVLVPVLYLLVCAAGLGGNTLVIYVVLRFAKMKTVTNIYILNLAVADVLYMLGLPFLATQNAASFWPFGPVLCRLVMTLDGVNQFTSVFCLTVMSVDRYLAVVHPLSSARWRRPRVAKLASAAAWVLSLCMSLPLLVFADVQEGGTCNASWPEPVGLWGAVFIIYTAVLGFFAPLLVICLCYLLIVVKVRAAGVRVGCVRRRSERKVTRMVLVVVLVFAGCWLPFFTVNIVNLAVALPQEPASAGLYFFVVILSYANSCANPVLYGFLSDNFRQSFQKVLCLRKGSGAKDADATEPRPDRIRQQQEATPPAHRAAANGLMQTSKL
# Description: (§1) CHO-K1 (ovary, Chinese hamster) cells were obtained from ATCC (ATCC No. CCL 61). The cells were grown and maintained in Ham's F12 media (Gibco BRL, Grand Island, N.Y.) supplemented with 10% fetal bovine serum under standard tissue culture conditions. For transfection, the cells were seeded at a density 1×10^6 /60-cm plate (Baxter Scientific Products, McGraw Park, Ill.). […] CHO-K1 clonal cell lines that have stably inherited the transfected DNA were selected for growth in Ham's F12 media containing 10% fetal bovine serum and 0.5 mg/ml of G418 (Sigma). The cells were ring-cloned and expanded in the same media for analysis.
# (§2) Transfected cell lines expressing the human SSTR receptors were clonally expanded in culture and used in the following SSTR binding protocol.
# (§3) Crude membranes were prepared by homogenization of the transfected cells in 20 ml of ice-cold 50 mM Tris-HCl with a POLYTRON homogenizer (setting 6, 15 sec). Buffer was added to obtain a final volume of 40 ml, and the homogenate was centrifuged in a Sorval SS-34 rotor at 39,000 g for 10 min at 0-4° C. The resulting supernatant was decanted and discarded. The pellet was rehomogenized in ice-cold buffer, diluted, and centrifuged as before. The final pellet was resuspended in the 10 mM Tris HCl and held on ice for the receptor binding assay.
# The final assay volume was 0.3 ml. […]
# hSSTR-3 = biological target: T2, hSSTR-3 (Homo sapiens, UniProt P32745); test: as above; details: 0.05 nM [125I-Tyr11]somatostatin-14, 30 min at 30° C.
# T2 construct: expressed in transfected cells; crude membranes
# T2 sequence (P32745 whole entry): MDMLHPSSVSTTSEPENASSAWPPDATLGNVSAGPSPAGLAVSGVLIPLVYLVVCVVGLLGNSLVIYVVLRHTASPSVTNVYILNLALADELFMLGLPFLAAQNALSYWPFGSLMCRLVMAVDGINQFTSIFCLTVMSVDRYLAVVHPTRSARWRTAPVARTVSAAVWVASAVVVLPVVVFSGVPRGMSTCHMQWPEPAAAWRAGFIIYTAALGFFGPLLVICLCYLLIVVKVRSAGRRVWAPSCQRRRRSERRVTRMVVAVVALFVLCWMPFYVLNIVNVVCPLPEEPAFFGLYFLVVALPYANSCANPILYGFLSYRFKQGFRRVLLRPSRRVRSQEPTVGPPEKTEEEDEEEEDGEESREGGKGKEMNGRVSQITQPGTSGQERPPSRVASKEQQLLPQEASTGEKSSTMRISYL
# Description: as §1, §2, §3
# The final assay volume was 0.3 ml. […]
# hSSTR-4 = biological target: T3, hSSTR-4 (Homo sapiens, UniProt P31391); test: as above; details: 0.05 nM [125I-Tyr11]somatostatin-14, 30 min at 30° C.
# T3 construct: expressed in transfected cells; crude membranes
# T3 sequence (P31391 whole entry): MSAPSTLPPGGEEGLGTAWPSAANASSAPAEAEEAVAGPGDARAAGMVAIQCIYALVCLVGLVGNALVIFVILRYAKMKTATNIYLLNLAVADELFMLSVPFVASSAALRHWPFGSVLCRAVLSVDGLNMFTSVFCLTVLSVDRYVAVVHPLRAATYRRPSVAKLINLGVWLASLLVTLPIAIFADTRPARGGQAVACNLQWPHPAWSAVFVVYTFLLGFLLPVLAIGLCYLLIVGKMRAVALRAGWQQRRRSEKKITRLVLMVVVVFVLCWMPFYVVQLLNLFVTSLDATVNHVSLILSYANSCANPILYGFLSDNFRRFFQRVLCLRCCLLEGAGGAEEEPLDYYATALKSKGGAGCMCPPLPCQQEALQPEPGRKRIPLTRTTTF
# Description: as §1, §2, §3
# The final assay volume was 0.3 ml. […]
# hSSTR-2 = biological target: T4, hSSTR-2 (Homo sapiens, UniProt P30874); test: as above; details: 0.05 nM [125I-Tyr11]somatostatin-14, 30 min at 30° C.
# T4 construct: expressed in transfected cells; crude membranes
# T4 sequence (P30874 whole entry): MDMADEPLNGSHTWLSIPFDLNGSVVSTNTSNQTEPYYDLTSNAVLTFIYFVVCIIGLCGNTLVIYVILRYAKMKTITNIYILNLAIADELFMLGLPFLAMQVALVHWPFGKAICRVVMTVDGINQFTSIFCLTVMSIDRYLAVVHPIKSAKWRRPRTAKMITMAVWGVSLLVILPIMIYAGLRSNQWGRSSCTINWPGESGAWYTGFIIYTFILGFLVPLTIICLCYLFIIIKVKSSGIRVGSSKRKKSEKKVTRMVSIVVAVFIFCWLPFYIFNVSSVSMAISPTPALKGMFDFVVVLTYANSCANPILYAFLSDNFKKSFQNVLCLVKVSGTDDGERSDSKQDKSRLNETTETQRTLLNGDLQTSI
# Description: as §1, §2, §3
# The final assay volume was 0.3 ml. […]
# [2] = 3 mg/kg s.c. twice a day, 6 days, after oral glucose challenge 0.8 gram/kg, vs saline group
# [3] = 3 mg/kg s.c. twice a day, 6 days, samples 30 and 60 min before oral glucose challenge
smiles,measurement,setting,value
"C[C@@H](O)[C@@H]1NC(=O)[C@H](CCCCN)NC(=O)[C@@H](Cc2c[nH]c3ccccc23)NC(=O)[C@H](Cc2ccccc2)NC(=O)[C@H](Cc2ccccc2)NC(=O)[C@@H](N)CSSC[C@@H](C(N)=O)NC(=O)[C@H](Cc2ccccc2)NC1=O [BIM-23268, H-Cys-Phe-Phe-D-Trp-Lys-Thr-Phe-Cys-NH2] (H-CFF[dW]KTFC-NH2; disulfide 1-8 (inferred))",plasma glycerol through the 2-hour test period,[1]; [2],significantly lower
same,plasma triglycerides through the 2-hour test period,[1]; [2],significantly lower
same,plasma glycerol,[1]; [3],significantly lowered
same,plasma triglycerides,[1]; [3],significantly lowered
same,hypertriglyceridemia,[1]; 6-day treatment period at the prescribed dose,effective in reducing hypertriglyceridemia
C[C@H](N)C(=O)NCC(=O)N[C@H]1CSSC[C@@H](C(=O)O)NC(=O)[C@H](CO)NC(=O)[C@H]([C@@H](C)O)NC(=O)[C@H](Cc2ccccc2)NC(=O)[C@H]([C@@H](C)O)NC(=O)[C@H](CCCCN)NC(=O)[C@H](Cc2c[nH]c3ccccc23)NC(=O)[C@H](Cc2ccccc2)NC(=O)[C@H](Cc2ccccc2)NC(=O)[C@H](CC(N)=O)NC(=O)[C@H](CCCCN)NC1=O [somatostatin],plasma triglyceride concentrations,alloxan diabetic dogs,reduce plasma triglyceride concentrations
same,plasma triglyceride concentrations,normal humans,reduce plasma triglyceride concentrations
same,plasma triglyceride concentrations,acromegalics,reduce plasma triglyceride concentrations
"C[C@@H](O)[C@@H]1NC(=O)[C@H](CCCCN)NC(=O)[C@@H](Cc2c[nH]c3ccccc23)NC(=O)[C@H](Cc2ccc(O)c(I)c2)NC(=O)[C@H](Cc2ccccc2)NC(=O)[C@@H](N)CSSC[C@@H](C(N)=O)NC(=O)[C@H](Cc2ccccc2)NC1=O [BIM-23313, H-Cys-Phe-Tyr(I)-D-Trp-Lys-Thr-Phe-Cys-NH2]",pKi,hSSTR-5,9.52
same,pKi,hSSTR-3,7.59
same,pKi,hSSTR-4,7.26
same,pKi,hSSTR-2,8.32
